Settings: JIS Z 7260-107

## O=C1NS(=O)(=O)c2ccccc21.[Ag] [saccharin silver]
  silver concentrations eluted out in 1-octanol or in water (hydrophilic and oleophilic property): hydrophilic property and oleophilic property which are both superior to those of silver stearate, phthalazone silver or benzotriazole silver

Source: US11172676B2, “Antibacterial resin composition” (TOYO SEIKAN GROUP HOLDINGS, LTD., priority 2011, dated 2021)
